Earlier results on 5 compounds are cited in patent publication US20240148815A1, “FOOD SUPPLEMENT TO PROMOTE BODY WEIGHT LOSS” (NGN HEALTHCARE-NEW GENERATION NUTRACEUTICALS S.R.L., priority 2021, published 2024).

SMILES strings stand for the structures. Structures can show the parent of a compound that is named as a salt.

The test system of one data set is overweight women. The note with it: 4 weeks, calorie-reduced diet.
In another data set the test system is rodents. The conditions noted are these: intragastric preload prior to enteral glucose.
The subject of another data set is obese mice. The note with it: intragastric, 4 weeks.
Data set [1] has as its system NCI-716 and STC-1 cells (T2R38). The conditions noted are these: by interacting with T2R38.
The next data set has as its system young healthy subjects. The note with it: oral, encapsulated, 18 mg.

Turning to `N[C@@H](Cc1c[nH]c2ccc(O)cc12)C(=O)O` [5-hydroxytryptophan], in the data set on overweight women, the BMI result is “decrease” and the feeling of satiety result is “significantly increased”.

In the case of `CC[N+](CC)(CC(=O)Nc1c(C)cccc1C)Cc1ccccc1` [DB, denatonium benzoate], in the data set on rodents, the GLP-1 plasma levels entry is on record as “increase”, the blood glucose result is “reduction”, the gastric emptying entry is recorded as “slowing” and the insulin concentration entry is reported as “increase”. For the same compound, the “meal-induced GLP-1 secretion” value with obese mice is “increase”. In addition, the body weight entry in the data set with obese mice (obese mice) is “reduction”. Further, the PYY secretion entry with NCI-H716 cells was “stimulates”.

For the compound `COc1ccc2cc3[n+](cc2c1OC)CCc1cc2c(cc1-3)OCO2` [berberine], the GLP-1 secretion entry in data set [1] is “dose-dependently stimulate”.

`NC(=S)Nc1ccccc1` [phenylthiourea]: the GLP-1 secretion result in data set [1] is listed as “dose-dependently stimulate”.

Consider `C=C[C@H]1C[N@@]2CC[C@H]1C[C@H]2[C@H](O)c1ccnc2ccc(OC)cc12` [quinine HCl], for which, in the data set with young healthy subjects, the CCK plasma concentrations result is recorded as “increased” and the “energy intake during an ad libitum meal” value is “reduced”.
